In patent US20240025887A1, “THIENYL AND CYCLOALKYL AMINOPYRIMIDINE COMPOUNDS AS INHIBITORS OF NUAK KINASES, COMPOSITIONS AND USES THEREOF” (Ontario Institute for Cancer Research (OICR), priority 2021, published 2024):

What was measured:
Assay type in all cases: biochemical
[1] = molecular target: T1, NUAK2 (h) (Homo sapiens, UniProt Q9H093); experiment: NUAK2 enzymatic assay (radiometric, Eurofins); conditions: for IC50: radiometric, full-length recombinant enzyme
T1 construct: This assay was done radiometrically using full-length, recombinant enzyme; purchased Eurofins
T1 sequence (Q9H093 1-628): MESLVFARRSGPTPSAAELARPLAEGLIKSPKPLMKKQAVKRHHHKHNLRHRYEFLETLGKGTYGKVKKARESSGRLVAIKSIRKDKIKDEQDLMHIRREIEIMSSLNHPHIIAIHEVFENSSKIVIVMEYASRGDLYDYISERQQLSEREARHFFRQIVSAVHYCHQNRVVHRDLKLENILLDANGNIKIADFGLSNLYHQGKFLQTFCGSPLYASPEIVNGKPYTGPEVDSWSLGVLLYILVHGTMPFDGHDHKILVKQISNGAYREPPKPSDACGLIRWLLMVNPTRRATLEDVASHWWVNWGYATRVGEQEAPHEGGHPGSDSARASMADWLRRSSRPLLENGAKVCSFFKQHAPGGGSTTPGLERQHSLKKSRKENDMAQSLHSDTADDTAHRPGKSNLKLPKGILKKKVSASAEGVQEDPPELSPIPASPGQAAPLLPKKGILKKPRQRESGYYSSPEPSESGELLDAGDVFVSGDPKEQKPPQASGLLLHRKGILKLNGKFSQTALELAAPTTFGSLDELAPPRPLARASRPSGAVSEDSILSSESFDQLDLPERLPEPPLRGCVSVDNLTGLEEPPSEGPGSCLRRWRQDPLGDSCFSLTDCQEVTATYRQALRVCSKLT
Description: (§1) To identify small molecule NUAK inhibitors, a biochemical NUAK2 enzymatic assay was outsourced to Eurofins. This assay was done radiometrically using full-length, recombinant enzyme. NUAK2 (h) was incubated with 8 mM MOPS pH 7.0, 0.2 mM EDTA, 300 μM […], 10 mM magnesium acetate and […] (specific activity and concentration as required). The reaction was initiated by the addition of the Mg/ATP mix. After incubation for 40 minutes at room temperature, the reaction was stopped by the addition of phosphoric acid to a concentration of 0.5%. 10 μL of the reaction was then spotted onto a P30 filter mat and washed four times for 4 minutes in 0.425% phosphoric acid and once in methanol prior to drying and scintillation counting. Compounds were routinely counter screened against Aurora A and NUAK1. The results are shown in Table 1 where IC50s are reported the following ranges: A: 0.1-10 nM; B: 11-100 nM; C: 101-1000 nM; D: >1000 nM for the compounds of Formula I)

[2] = molecular target: T2, NUAK1 (Homo sapiens, UniProt O60285); experiment: NUAK1 counter screen
T2 sequence (O60285 1-661): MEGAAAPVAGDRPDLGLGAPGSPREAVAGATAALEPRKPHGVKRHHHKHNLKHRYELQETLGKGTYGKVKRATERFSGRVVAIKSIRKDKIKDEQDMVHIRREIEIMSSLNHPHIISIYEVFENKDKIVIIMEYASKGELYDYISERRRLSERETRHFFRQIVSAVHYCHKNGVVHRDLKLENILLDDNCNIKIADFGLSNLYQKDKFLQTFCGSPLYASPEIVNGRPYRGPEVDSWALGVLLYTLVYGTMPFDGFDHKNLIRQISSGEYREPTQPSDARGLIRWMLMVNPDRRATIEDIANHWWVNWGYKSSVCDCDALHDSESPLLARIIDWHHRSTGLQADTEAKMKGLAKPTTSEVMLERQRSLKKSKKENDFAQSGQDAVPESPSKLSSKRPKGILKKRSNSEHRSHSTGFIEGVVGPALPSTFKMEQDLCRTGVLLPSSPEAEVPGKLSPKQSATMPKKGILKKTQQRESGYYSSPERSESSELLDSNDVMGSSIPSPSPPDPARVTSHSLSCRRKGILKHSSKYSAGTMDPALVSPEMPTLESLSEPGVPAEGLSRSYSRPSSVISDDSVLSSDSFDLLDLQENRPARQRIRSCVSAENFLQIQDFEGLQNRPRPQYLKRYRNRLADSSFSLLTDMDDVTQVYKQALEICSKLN
Description: as §1

[3] = molecular target: T3, Aurora A (Homo sapiens, UniProt O14965); experiment: Aurora A counter screen; conditions: read-out: AUR-A (IC50)
T3 sequence (O14965 1-403): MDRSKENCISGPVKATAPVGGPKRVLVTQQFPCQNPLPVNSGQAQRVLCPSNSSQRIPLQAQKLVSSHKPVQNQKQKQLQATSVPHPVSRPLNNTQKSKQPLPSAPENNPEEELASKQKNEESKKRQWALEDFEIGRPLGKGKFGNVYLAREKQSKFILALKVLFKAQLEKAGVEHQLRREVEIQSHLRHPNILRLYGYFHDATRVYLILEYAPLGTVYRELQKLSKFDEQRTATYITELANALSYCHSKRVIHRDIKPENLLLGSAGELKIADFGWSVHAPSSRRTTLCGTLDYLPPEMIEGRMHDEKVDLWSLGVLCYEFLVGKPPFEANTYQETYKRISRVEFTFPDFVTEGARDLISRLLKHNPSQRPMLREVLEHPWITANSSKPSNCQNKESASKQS
Description: as §1

IC50 [1] [nM] | IC50 [2] [nM] | IC50 [3] [nM] | AUR-A (IC50, nM)/NUAK2 (IC50, nM) ([1]; NUAK2 selectivity over Aurora-A, ratio of IC50s) | SMILES
0.1 to 10 | 11 to 100 | 101 to 1000 | – | CN1C[C@H]2C[C@@H]1CN2c1ccc(Nc2ncc(Cl)c(Nc3sccc3C(N)=O)n2)c(OC(F)F)c1 [Compound I-18, 2-((5-chloro-2-((2-(difluoromethoxy)-4-((1R,4R)-5-methyl-2,5-diazabicyclo[2.2.1]heptan-2-yl)phenyl)amino)pyrimidin-4-yl)amino)thiophene-3-carboxamide]
101 to 1000 | 101 to 1000 | > 1000 | – | CN1CCN(c2ccc(Nc3nccc(Nc4ccsc4C(N)=O)n3)c(OC(F)F)c2)CC1 [Compound I-3, 3-((2-((2-(difluoromethoxy)-4-(4-methylpiperazin-1-yl)phenyl)amino)pyrimidin-4-yl)amino)thiophene-2-carboxamide]
11 to 100 | 11 to 100 | > 1000 | – | Cc1cnc(Nc2ccc(N3CCN(C)CC3)cc2OC(F)F)nc1Nc1ccsc1C(N)=O [Compound I-4, 3-((2-((2-(difluoromethoxy)-4-(4-methylpiperazin-1-yl)phenyl)amino)-5-methylpyrimidin-4-yl)amino)thiophene-2-carboxamide]
0.1 to 10 | 0.1 to 10 | 11 to 100 | – | C[C@@H]1CN(c2ccc(Nc3ncc(Cl)c(Nc4ccsc4C(N)=O)n3)c(OC(F)F)c2)C[C@H](C)N1C [Compound I-8, 3-((5-chloro-2-((2-(difluoromethoxy)-4-((3R,5S)-3,4,5-trimethylpiperazin-1-yl)phenyl)amino)pyrimidin-4-yl)amino)thiophene-2-carboxamide]
11 to 100 | 11 to 100 | 101 to 1000 | – | CN1CCCN(C2CCN(c3ccc(Nc4ncc(Cl)c(Nc5ccsc5C(N)=O)n4)c(OC(F)F)c3)CC2)CC1 [Compound I-72, 3-((5-chloro-2-((2-(difluoromethoxy)-4-(4-(4-methyl-1,4-diazepan-1-yl)piperidin-1-yl)phenyl)amino)pyrimidin-4-yl)amino)thiophene-2-carboxamide]
11 to 100 | 11 to 100 | 101 to 1000 | – | NC(=O)c1sccc1Nc1nc(Nc2ccc(N3CCOCC3)cc2OC(F)F)ncc1C(F)(F)F [Compound I-39, 3-((2-((2-(difluoromethoxy)-4-morpholinophenyl)amino)-5-(trifluoromethyl)pyrimidin-4-yl)amino)thiophene-2-carboxamide]
0.1 to 10 | 11 to 100 | 101 to 1000 | – | NC(=O)c1sccc1Nc1nc(Nc2ccc(N3CCC(N4CCOCC4)CC3)cc2OC(F)F)ncc1Cl [Compound I-43, 3-((5-chloro-2-((2-(difluoromethoxy)-4-(4-morpholinopiperidin-1-yl)phenyl)amino)pyrimidin-4-yl)amino)thiophene-2-carboxamide]
11 to 100 | – | > 1000 | – | CNC(=O)c1sccc1Nc1nc(Nc2ccc(N3CCN(C)CC3)cc2C(F)(F)F)ncc1Cl [Compound I-59, 3-((5-chloro-2-((4-(4-methylpiperazin-1-yl)-2-(trifluoromethyl)phenyl)amino)pyrimidin-4-yl)amino)-N-methylthiophene-2-carboxamide]
11 to 100 | 101 to 1000 | – | – | COc1cnc(Nc2ccc(N3CCN(C)CC3)cc2OC(F)F)nc1Nc1ccsc1C(N)=O [Compound I-81]
– | 11 to 100 | > 1000 | – | CN1CCN(C2CCN(c3ccc(Nc4ncc(Cl)c(Nc5sccc5C(N)=O)n4)c(OC(F)F)c3)CC2)CC1 [Compound I-74, 2-((5-chloro-2-((2-(difluoromethoxy)-4-(4-(4-methylpiperazin-1-yl)piperidin-1-yl)phenyl)amino)pyrimidin-4-yl)amino)thiophene-3-carboxamide]

The remaining lines, values behind:

SMILES | IC50 [1] [nM] | IC50 [2] [nM] | IC50 [3] [nM] | AUR-A (IC50, nM)/NUAK2 (IC50, nM) ([1]; NUAK2 selectivity over Aurora-A, ratio of IC50s)
CNC(=O)c1sccc1Nc1nc(Nc2ccc(N3CCN(C)CC3)cc2OC(F)F)ncc1Cl [Compound I-7, 3-((5-chloro-2-((2-(difluoromethoxy)-4-(4-methylpiperazin-1-yl)phenyl)amino)pyrimidin-4-yl)amino)-N-methylthiophene-2-carboxamide] | 11 to 100 | 11 to 100 | 101 to 1000 | –
CC(C)N1C[C@@H]2C[C@H]1CN2c1ccc(Nc2ncc(Cl)c(Nc3sccc3C(N)=O)n2)c(OC(F)F)c1 (stereo in doubt) [Compound I-36, 2-((5-chloro-2-((2-(difluoromethoxy)-4-((1S,4S)-5-isopropyl-2,5-diazabicyclo[2.2.1]heptan-2-yl)phenyl)amino)pyrimidin-4-yl)amino)thiophene-3-carboxamide] | 11 to 100 | 11 to 100 | 101 to 1000 | –
CN1C2CCC1CN(c1ccc(Nc3ncc(Cl)c(Nc4sccc4C(N)=O)n3)c(OC(F)F)c1)C2 [Compound I-32, 2-((5-chloro-2-((2-(difluoromethoxy)-4-(8-methyl-3,8-diazabicyclo[3.2.1]octan-3-yl)phenyl)amino)pyrimidin-4-yl)amino)thiophene-3-carboxamide] | 11 to 100 | 11 to 100 | 101 to 1000 | –
CN(C)[C@H]1CCN(c2ccc(Nc3ncc(Cl)c(Nc4ccsc4C(N)=O)n3)c(OC(F)F)c2)C1 [Compound I-56, (S)-3-((5-chloro-2-((2-(difluoromethoxy)-4-(3-(dimethylamino)pyrrolidin-1-yl)phenyl)amino)pyrimidin-4-yl)amino)thiophene-2-carboxamide] | 11 to 100 | 0.1 to 10 | 101 to 1000 | –
CC(C)N1CCN(c2ccc(Nc3ncc(Cl)c(Nc4sccc4C(N)=O)n3)c(OC(F)F)c2)CC1 [Compound I-13, 2-((5-chloro-2-((2-(difluoromethoxy)-4-(4-isopropylpiperazin-1-yl)phenyl)amino)pyrimidin-4-yl)amino)thiophene-3-carboxamide] | 0.1 to 10 | 11 to 100 | 11 to 100 | –
CN(C1CCCCC1)C1CCN(c2ccc(Nc3ncc(Cl)c(Nc4ccsc4C(N)=O)n3)c(OC(F)F)c2)CC1 [Compound I-73, 3-((5-chloro-2-((4-(4-(cyclohexyl(methyl)amino)piperidin-1-yl)-2-(difluoromethoxy)phenyl)amino)pyrimidin-4-yl)amino)thiophene-2-carboxamide] | 11 to 100 | 11 to 100 | 101 to 1000 | –
CN1CCN(c2ccc(Nc3ncc(Cl)c(Nc4ccsc4C(N)=O)n3)c(Cl)c2F)CC1 [Compound C-4, reference compound] | 0.1 to 10 | 0.1 to 10 | 101 to 1000 | 50
NC(=O)c1sccc1Nc1nc(Nc2ccc(N3CCN(CC(F)(F)F)CC3)cc2OC(F)F)ncc1Cl [Compound I-33, 3-((5-chloro-2-((2-(difluoromethoxy)-4-(4-(2,2,2-trifluoroethyl)piperazin-1-yl)phenyl)amino)pyrimidin-4-yl)amino)thiophene-2-carboxamide] | 101 to 1000 | 101 to 1000 | 101 to 1000 | –
